Values of other authors in US20230067378A1, “COMPOSITIONS AND METHODS FOR THE TREATMENT OF ESTROGEN-DEPENDENT DISORDERS” (ObsEva S.A., priority 2018, published 2023).

Conditions: in vivo; cited from earlier work

For `COc1cccc(-c2c(C)n(Cc3c(F)cccc3C(F)(F)F)c(=O)n(C[C@H](NCCCC(=O)O)c3ccccc3)c2=O)c1F` [Elagolix, sodium 4-({(1R)-2-[5-(2-fluoro-3-methoxyphenyl)-3-{[2-fluoro-6-(trifluoromethyl)phenyl]methyl}-4-methyl-2,6-dioxo-3,6-dihydropyrimidin-1(2H)-yl]-1-phenylethyl}amino)butanoate], the half-life is listed as 2 to 6 h.
In the case of `CONC(=O)Nc1ccc(-c2sc3c(c2CN(C)C)c(=O)n(-c2ccc(OC)nn2)c(=O)n3Cc2c(F)cccc2F)cc1` [relugolix, N-(4-(1-(2,6-difluorobenzyl)-5-((dimethylamino)methyl)-3-(6-methoxy-3-pyridazinyl)-2,4-dioxo-1,2,3,4-tetrahydrothieno[2,3-d]pyrimidin-6-yl)phenyl)-N′-methoxyurea], the half-life is listed as 37 to 42 h.
